Laboratory results: PubChem BioAssay (NCI)
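Grown in 96-well plates, cells were treated for 48 hours with each compound at five concentrations. Insufficient inhibition: endpoint recorded as highest concentration tested. Here, GI50 denotes the concentration required for 50% inhibition of growth. Definition used: TGI = concentration required for complete inhibition of growth.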

How the values were obtained:
Experiment in all cases: NCI anticancer screen, dose series, 48 h
[1] = system: SK-MEL-28 melanoma
[2] = system: NCI-H522 lung
[3] = system: CCRF-CEM leukemia
[4] = system: MALME-3M melanoma
[5] = system: A549 NSCLC
[6] = system: TK-10 renal
[7] = system: NCI-H460 lung
[8] = system: NCI/ADR-RES ovarian
[9] = system: BT-549 breast
[10] = system: MDA-MB-435

Row | SMILES | TGI [1] [µM] | TGI [2] [µM] | TGI [3] [µM] | TGI [4] [µM] | TGI [5] [µM] | TGI [6] [µM] | TGI [7] [µM] | GI50 [2] [µM] | GI50 [8] [µM] | TGI [8] [µM] | GI50 [4] [µM] | GI50 [9] [µM] | TGI [9] [µM] | GI50 [6] [µM] | GI50 [10] [µM] | TGI [10] [µM] | GI50 [5] [µM] | GI50 [1] [µM] | GI50 [3] [µM] | GI50 [7] [µM]
1 | NS(=O)(=O)c1ccc(NC(=O)c2cccn3c(=O)c4ccccc4nc23)cc1 | > 100 | > 100 | > 100 | > 100 | > 100 | > 100 | > 100 | – | – | – | – | – | – | – | – | – | – | – | – | –
2 | C[N+](C)=c1nc(N2CCOCC2)ss1 | > 100 | > 100 | > 100 | – | > 100 | > 100 | > 100 | – | – | – | – | – | – | – | – | – | – | – | – | –
3 | O=C(/C=C/c1cn(-c2ccccc2)nc1-c1ccc([N+](=O)[O-])cc1)c1ccc(Cl)cc1 | – | > 100 | – | 6.59 | – | 13.4 | – | 6.41 | 3.86 | > 100 | 2.44 | 3.13 | > 32.1 | 3.09 | – | – | – | – | – | –
4 | CC(=O)OCCC(O[Si](c1ccccc1)(c1ccccc1)C(C)(C)C)C(C)(C)O (configuration not stated) | > 100 | 46.8 | 67.6 | > 100 | > 100 | > 100 | > 100 | – | – | – | – | – | – | – | – | – | – | – | – | –
5 | O=C(O)[C@@H]1CCCC[C@@H]1C(=O)N(C1CCCCC1)C1CCCCC1 | > 100 | > 100 | > 100 | > 100 | > 100 | > 100 | > 100 | – | – | – | – | – | – | – | – | – | – | – | – | –
6 | CCN(CC)CCOc1ccc(/C=C2\CC3C4CC=C5C[C@@H](OC(C)=O)CC[C@]5(C)C4CC[C@]3(C)C2=O)cc1OC (some centres not stated) | – | 33.1 | – | 3.47 | 44.9 | 6.1 | – | 14.4 | 5.08 | > 100 | 1.96 | 11.4 | 33 | 2.53 | 1.78 | 3.58 | 17.7 | – | – | –
7 | C1=C2CNCC3=Cc4ccc5ccccc5c4OC23Oc2c1ccc1ccccc21 | – | 13.1 | > 100 | 38.5 | 20.5 | 27.4 | 13.1 | 3.01 | 2.1 | 6.06 | 12.5 | 11.3 | 40.7 | 9.08 | – | – | 4.48 | 7.38 | 3.65 | 3.27
8 | COc1ccc(-c2nc3c(c(=O)n2C(C)=O)C(c2ccc(Cl)cc2)c2sc4c(Cl)cccc4c2O3)cc1 (configuration not stated) | 3.39 | 1.48 | 6.28 | 2.62 | 2.2 | 2.67 | 1.38 | 0.259 | 0.187 | 0.919 | 0.409 | 0.355 | 2.07 | 0.846 | – | – | 0.625 | 1.15 | 0.462 | 0.365
9 | O=[N+]([O-])C1C2C=CC(C2)[C@H]1c1ccc(Cl)cc1Cl (some centres not stated) | > 100 | – | > 100 | > 100 | > 100 | > 100 | > 100 | – | – | – | – | – | – | – | – | – | – | – | – | –
10 | CC(c1ccccc1)N1CC(C)(c2ccccc2)N(O)C(c2ccccc2)C1C (configuration not stated) | 21.9 | 32.3 | 31 | 66.2 | 37.8 | > 100 | 27 | – | – | – | – | – | – | – | – | – | – | – | – | –
11 | CCOCNc1ccc(N2C(=O)/C(=C/c3ccc(N(CC)CC)cc3)N=C2c2ccccc2)cc1 | > 100 | – | > 100 | > 100 | > 100 | > 100 | > 100 | – | 33.9 | > 100 | 24.8 | 33.5 | > 100 | 22.3 | 69.1 | > 100 | 11.4 | > 100 | 3.55 | 2.86
12 | COc1cc2cccc(N=Cc3c(Br)ccc(OC)c3OC(C)C)c2cc1OC | > 100 | > 100 | 90.4 | > 100 | > 100 | > 100 | > 100 | – | – | – | – | – | – | – | – | – | – | – | – | –
13 | c1ccc(NC[Si]23OCCN(CCO2)CCO3)cc1 | > 100 | > 100 | > 100 | > 100 | > 100 | > 100 | > 100 | – | – | – | – | – | – | – | – | – | – | – | – | –
14 | COc1ccc(NC(=O)c2sc3nc4c(cc3c2N)CCCC4)cc1 | > 100 | 0.772 | > 100 | – | > 100 | – | 19.8 | 0.234 | 0.384 | 3.85 | – | 0.41 | 13.9 | – | – | – | 1.18 | 15.2 | 0.322 | 0.543
15 | COc1ccc(C2NCCc3c2[nH]c2ccccc32)cc1 (configuration not stated) | > 100 | > 100 | > 100 | > 100 | > 100 | > 100 | > 100 | – | – | – | – | – | – | – | – | – | – | – | – | –
16 | Cc1cc(=O)oc2cc(OCCn3c(C)nn(-c4ccc(Cl)cc4)c3=O)ccc12 | > 100 | 33.2 | – | > 100 | > 100 | 88.4 | > 100 | 3.85 | 1.64 | > 100 | 3.85 | 16.5 | 99.4 | 13.4 | 0.269 | 0.837 | 6.07 | 3.13 | – | 2.8
17 | Fc1c[c-]c(-c2ccccn2)c(F)c1.[CH3-].[Pt+2].c1ccc(P(C[PH+](c2ccccc2)c2ccccc2)c2ccccc2)cc1 | 1.52 | 3.16 | – | 0.919 | 4.7 | 3.39 | 1.54 | 0.96 | 2.53 | 11.9 | 0.342 | 0.492 | 1.49 | 0.991 | 0.795 | 2.08 | 0.393 | 0.512 | – | 0.591
18 | C=CC1=CC(C)C[C@]1(O)C(=O)OC (some centres not stated) | – | > 100 | – | – | – | – | – | – | – | – | > 100 | – | – | > 100 | – | – | > 100 | > 100 | > 100 | > 100
19 | COc1ccc2[nH]c3c(=O)[nH]ncc3c2c1 | > 100 | > 100 | > 100 | > 100 | > 100 | > 100 | > 100 | – | – | – | – | – | – | – | – | – | – | – | – | –
